From publication PMC9675976, “Selfish uptake versus extracellular arabinoxylan degradation in the primary degrader Ruminiclostridium cellulolyticum, a new string to its bow” (Biotechnology for Biofuels and Bioproducts, 2022)
Entries after “also recorded” stand apart in the source; their conditions may differ. Like-named read-outs stand apart in the source and are kept apart here.

B1: XuaE (Ruminiclostridium cellulolyticum H10) (protein)
chain: MKIQNPIIWADMPDPDIIRVGDIYYMVSTTMFVMPGAPILKSKDLYHWELVSYVFNTIEDNDIYQLKNGKTAYGKGQWATSLRFFNGLYYACFVCHDMQKTYIYYTDDIEKSGWERYVINNVFHDMSFLFDNNRSYLIYGNGDIKIVELKDDLSGIKDGGVNQLLFSTPSENIMLRCEGCRAYKINGYYYLLFIEWPNDGNSRRRVVCYRSKDLLGEYDRKILLDDDMEYQNQGIAQGAIIDTPEGEWYSILFQDHGAVGRIPYLLPVSWEDDWPNLGVNEKVPESFEIPFEAYDTKPLIVSDSFNHNENKLDLRWQWNHNPEEDCWSFTEHPGYLRLRTQSLATDILTARNTLTQRTSGPQCAFSVELKTEGMKAGDYAGLVALQGNYGAIGIRADENNLKRIIVSKKGSDGRQIEEEYRLFADSRILIKIEFDFRNSSDIAKFYYSQDGIGWIKLGSDLHMTYTLDLFIGYRIGIFYYSQKAAGGFADFRNFSYESRQ
B2: XuaH (Ruminiclostridium cellulolyticum H10) (protein)
chain: MAIFQANFFAKTMKRSICFNALIPNDKYQAPDQEIKDEPKGPMKSIYLLHGYSGNHTDWLTWTKIQELSLKYNIAVFMPSGENFFYVDDEEVGAYYGELIGNELVDYTRSTFHLSDKREDTFIGGLSMGGYGAIRNGLKYSERFGRIIALSSALITNQIAGITPDFKGPVADYPYYRRVFGDLDRLLGGDKDPEALIRSLKEKNADIPKIYMACGTEDFLINENRELHEFLVSEKVEHTYIEDSGVHDWKFWNEYIDKGLAWATE

Experiments:
XuaA [1] = biological target: T1, XuaA (Ruminiclostridium cellulolyticum, UniProt B8I0N3); experiment: Thermal shift assay (TSA) of XuaA with carbohydrate ligands; format: binding; conditions: for Binding to XuaA (in words): screened by TSA, then ITC
Procedure: (§1) XOS and AXOS were purchased from Megazyme: A^3X (ref O-A^3X), A^2XX (ref O-A^2XX), A^2,3XX (ref O-A^2,3XX), XA^3XX (ref O-XA^3XX), XA^2,3XX (ref O-XA^2,3XX), XAXXMIX (ref O-XAXXMIX), X2 to X6 (ref O-XBI, O-XTR, O-XTE, O-XPE, O-XHE, respectively) (Fig. 3) (Megazyme). For TSA experiments, monosaccharides, XOS and AXOS were tested at a final concentration of 1 mM or 0.1 mM (for X4, X5, and X6). Experiments were performed with XuaA (8 µM) in 25 mM phosphate buffer pH 7 and SYPRO orange (1/500) (Sigma-Aldrich). Melting curves were monitored from 10 to 90 °C with 0.5 °C increment every 30 s, on CFX96 touch real-time PCR detection system (Bio-Rad, France) and analyzed using the Bio-Rad CFX Maestro 1.1 software.

XuaG = experiment: Enzyme activity of XuaG on AXOS and XOS (HPAEC-PAD); format: biochemical, Ruminiclostridium cellulolyticum; conditions: substrate 1 mM, 37 °C
Procedure: (§2) XuaD, E, F, G (0.01 to 1 µM) were tested with different AXOS and/or XOS at 1 mM with incubation times varying from 5 min to 24 h. Enzymes (10 nM) were incubated at 37 °C for 5 min, kinetic parameters of XuaD were determined with both A^2,3XX and A^2XX, with sugar concentration varying from 0.05 to 8 mM, and XuaE with A^2,3XX with sugar concentration varying from 0.05 to 1 mM (at least 9 concentration point). Substrates and released products were quantified by high performance anion exchange chromatography coupled with pulsed amperometric detection on an ICS-3000 using a PA1 column (Thermo Scientific). Sugars were eluted with the buffers 0.1 M NaOH and 0.5 M sodium acetate + 0.1 M NaOH as the eluants A and B, respectively, using the multistep procedure as follows: isochratic separation (5 min, 95% A + 5% B), separation gradient (8 min, 10–37% B), column wash (2 min, 99% B), and subsequent column equilibration (2.5 min, 95% A + 5% B).

XuaF = experiment: Enzyme activity of XuaF on AXOS and XOS (HPAEC-PAD); format: biochemical, Ruminiclostridium cellulolyticum; conditions: substrate 1 mM, 37 °C
Procedure: as §2

XuaD = XuaD (Ruminiclostridium cellulolyticum, UniProt B8I0N6); experiment: Enzyme activity of XuaD on AXOS (HPAEC-PAD); format: biochemical; conditions: for Products released by XuaD: HPAEC-PAD; for Specific activity (IU) of XuaD: substrate 1 mM, 37 °C
Procedure: as §2

XuaA [2] = biological target: T1, XuaA; experiment: Isothermal titration calorimetry (ITC) of XuaA with ligands; format: binding; conditions: 25 °C, 25 mM phosphate buffer pH 7.0
Procedure: as §1
A MicroCal PEAQ-ITC (Malvern, Malvern, UK) was used to determine thermodynamic parameters of the binding at 25 °C in 25 mM phosphate buffer, pH 7.0. The ligands (50–2000 µM) were injected (one injection with 0.4 µL followed by 18 injections of 2 µL) in the cell containing XuaA (5–50 µM) in the same buffer. At least one duplicate was performed.

XuaE = XuaE (Ruminiclostridium cellulolyticum, UniProt B8I0N8); experiment: Enzyme activity of XuaE on AXOS (HPAEC-PAD); format: biochemical; conditions: for Products released by XuaE: HPAEC-PAD; for Specific activity (IU) of XuaE: substrate 1 mM, 37 °C
Procedure: as §2

[3] = substrate: OC[C@@H]1O[C@@H](O[C@@H]2[C@@H](O[C@@H]3O[C@@H](CO)[C@H](O)[C@H]3O)[C@H](O[C@@H]3CO[C@@H](O[C@@H]4COC(O)[C@H](O)[C@H]4O)[C@H](O)[C@H]3O)OC[C@H]2O)[C@H](O)[C@H]1O; experiment: Enzyme activity of XuaE on AXOS (HPAEC-PAD); format: biochemical, Ruminiclostridium cellulolyticum; conditions: other: 37 °C, substrate 0.05 to 1 mM
Procedure: as §2

[4] = substrate: CC(=O)Oc1cccc2ccccc12; experiment: Esterase activity of XuaH; format: biochemical, Ruminiclostridium cellulolyticum; conditions: other: 37 °C, pH 7, substrate 110 µM to 5.36 mM
Procedure: Esterase activity was tested using 1-Naphthyl acetate. Release of 1-Naphthol was monitored at 320 nm during 5 min at 37 °C in 25 mM phosphate buffer pH 7, with substrate final concentration ranging from 110 µM and 5.36 mM, and with XuaH (0.1 µM) or XuaJ (0.01 µM). Concentration of released 1-Naphthol during the first minute of the assay was determined based on 1-Naphthol standard curve.

[5] = XuaA 8 µM, ligand 1 mM or 0.1 mM (X4, X5, X6), 25 mM phosphate buffer pH 7, mean of at least 2 experiments
[6] = XuaE versus XuaD on the same substrate

T1 sequence (B8I0N3 entry or part of it): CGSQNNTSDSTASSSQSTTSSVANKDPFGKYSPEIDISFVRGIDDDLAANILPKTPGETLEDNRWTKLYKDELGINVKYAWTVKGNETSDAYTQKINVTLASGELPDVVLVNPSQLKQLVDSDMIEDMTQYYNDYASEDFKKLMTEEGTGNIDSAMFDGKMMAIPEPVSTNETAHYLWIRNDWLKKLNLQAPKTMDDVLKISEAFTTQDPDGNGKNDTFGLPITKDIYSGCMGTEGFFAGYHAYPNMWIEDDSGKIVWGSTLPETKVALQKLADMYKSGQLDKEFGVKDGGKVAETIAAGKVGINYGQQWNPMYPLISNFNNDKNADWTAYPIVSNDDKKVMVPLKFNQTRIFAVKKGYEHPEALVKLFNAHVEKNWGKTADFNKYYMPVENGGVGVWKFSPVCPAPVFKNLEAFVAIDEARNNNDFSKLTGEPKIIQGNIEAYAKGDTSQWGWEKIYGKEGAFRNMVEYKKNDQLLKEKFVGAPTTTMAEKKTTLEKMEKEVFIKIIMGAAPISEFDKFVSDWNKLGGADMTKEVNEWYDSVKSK
Chain of XuaD (B8I0N6 entry or part of it): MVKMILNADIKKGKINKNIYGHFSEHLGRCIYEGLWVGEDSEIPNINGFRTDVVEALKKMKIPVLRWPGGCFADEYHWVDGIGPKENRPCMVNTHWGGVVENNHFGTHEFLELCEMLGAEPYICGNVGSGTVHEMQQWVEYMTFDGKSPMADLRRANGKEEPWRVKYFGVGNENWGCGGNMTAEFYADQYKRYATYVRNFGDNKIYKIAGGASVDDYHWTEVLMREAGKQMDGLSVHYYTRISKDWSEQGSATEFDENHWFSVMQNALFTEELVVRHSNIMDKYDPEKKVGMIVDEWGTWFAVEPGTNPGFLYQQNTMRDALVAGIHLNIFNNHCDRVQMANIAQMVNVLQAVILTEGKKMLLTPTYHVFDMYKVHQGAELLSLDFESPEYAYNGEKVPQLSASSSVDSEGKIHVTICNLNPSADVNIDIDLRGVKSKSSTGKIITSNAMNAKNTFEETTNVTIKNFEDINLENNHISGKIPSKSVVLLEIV

Molecule | Specific activity (IU) of XuaG (XuaG) | TSA ∆T (XuaA [1]; [5]) | Specific activity (IU) of XuaF (XuaF) | Products released by XuaD (XuaD) | Specific activity (IU) of XuaD (XuaD) | further results
O=C[C@H](O)[C@@H](O)[C@H](O)CO [X, xylose] | – | – | – | – | – | ΔTm at 1000 µM (XuaA [1]; pH 7, ligand 1 mM, Additional file 1, read-out: TSA ∆T): 0 °C; Binding to XuaA (in words) (XuaA [1]): does not bind; also recorded: failed to bind
OC1OC[C@@H](O[C@@H]2OC[C@@H](O[C@@H]3OC[C@@H](O[C@@H]4OC[C@@H](O)[C@H](O)[C@H]4O)[C@H](O)[C@H]3O)[C@H](O)[C@H]2O)[C@H](O)[C@H]1O (stereo partly shown) [X4] | IU: 23.3 ± 0.5 IU/µmol of enzyme | 0 °C | IU: 87.2 ± 7.6 IU/µmol of enzyme | – | – | –
OC[C@H]1OC(O)[C@H](O)[C@@H](O)[C@@H]1O (stereo partly shown) [G, glucose] | – | – | – | – | – | ΔTm at 1000 µM (XuaA [1]; pH 7, read-out: TSA ∆T): 0 °C; Binding to XuaA (in words) (XuaA [1]): does not bind
OC1OC[C@@H](O[C@@H]2OC[C@@H](O[C@@H]3OC[C@@H](O[C@@H]4OC[C@@H](O[C@@H]5OC[C@@H](O)[C@H](O)[C@H]5O)[C@H](O)[C@H]4O)[C@H](O)[C@H]3O)[C@H](O)[C@H]2O)[C@H](O)[C@H]1O (stereo partly shown) [X5] | IU: 6.2 ± 0.5 IU/µmol of enzyme | – | IU: 25.3 ± 0.7 IU/µmol of enzyme | – | – | ΔTm at 100 µM (XuaA [1]; pH 7, ligand 100 µM, Additional file 1, read-out: TSA ∆T): 0 °C
OC[C@@H]1O[C@@H](O[C@@H]2[C@@H](O)[C@H](O[C@@H]3CO[C@@H](O[C@@H]4COC(O)[C@H](O)[C@H]4O)[C@H](O)[C@H]3O)OC[C@H]2O[C@@H]2OC[C@@H](O)[C@H](O)[C@H]2O)[C@H](O)[C@H]1O (stereo partly shown) [XA^3XX] | IU: 21.2 ± 0.2 IU/µmol of enzyme | 11.0 °C | IU: 166.7 ± 12.8 IU/µmol of enzyme | Products: Ara, X4 | IU: 1218.9 ± 38.5 IU/µmol of enzyme | ITC -T∆S (XuaA [2]): 11.6 ± 1.2 kcal/mol; ITC N (sites) (XuaA [2]): 0.652 ± 2.83e-3 sites; Kd (XuaA [2]): 40.4 ± 9.3 nM; Products released by XuaE (XuaE): Products: Ara, X4
OC1OC[C@@H](O[C@@H]2OC[C@@H](O[C@@H]3OC[C@@H](O)[C@H](O)[C@H]3O)[C@H](O)[C@H]2O)[C@H](O)[C@H]1O (stereo partly shown) [X3, xylotriose] | IU: 24.5 ± 1.6 IU/µmol of enzyme | 0 °C | IU: 158.7 ± 21.1 IU/µmol of enzyme | – | – | –
OC[C@@H]1O[C@@H](O[C@@H]2[C@@H](O[C@@H]3O[C@@H](CO)[C@H](O)[C@H]3O)[C@H](O[C@@H]3CO[C@@H](O[C@@H]4COC(O)[C@H](O)[C@H]4O)[C@H](O)[C@H]3O)OC[C@H]2O)[C@H](O)[C@H]1O (stereo partly shown) [A^2,3XX] | blocks the activity | 13.5 °C | – | Products: Ara, X3 | IU: 1256.3 ± 50.2 IU/µmol of enzyme | ITC -T∆S (XuaA [2]): 15.1 ± 2.8 kcal/mol; ITC N (sites) (XuaA [2]): 0.796 ± 2.37e-2 sites; Kd (XuaA [2]): 12 ± 4.6 nM; Products released by XuaE (XuaE): Products: Ara, A^2XX, A^3XX?; Km of XuaE relative to XuaD (fold lower) (XuaE; [6]): 18 fold; kcat of XuaE relative to XuaD (XuaE; [6]): twofold lower; Specific activity (IU) of XuaE (XuaE): IU: 1938.0 ± 109.6 IU/µmol of enzyme
OC[C@@H]1O[C@@H](O[C@@H]2[C@@H](O[C@@H]3O[C@@H](CO)[C@H](O)[C@H]3O)[C@H](O[C@@H]3CO[C@@H](O[C@@H]4COC(O)[C@H](O)[C@H]4O)[C@H](O)[C@H]3O)OC[C@H]2O[C@@H]2OC[C@@H](O)[C@H](O)[C@H]2O)[C@H](O)[C@H]1O (stereo partly shown) [XA^2,3XX] | IU: 20.3 ± 0.2 IU/µmol of enzyme | 14 °C | IU: 29.7 ± 2.8 IU/µmol of enzyme | Products: Ara, X4 | IU: 1.5 ± 0.03 IU/µmol of enzyme | ITC -T∆S (XuaA [2]): 4.8 ± 0.5 kcal/mol; ITC N (sites) (XuaA [2]): 1.05 ± 5.67e-2 sites; Kd (XuaA [2]): 15.9 ± 0.1 nM; Products released by XuaE (XuaE): Products: Ara, XA^2XX, XA^3XX; Specific activity (IU) of XuaE (XuaE): IU: 1927.2 ± 100.4 IU/µmol of enzyme
OC1OC[C@@H](O[C@@H]2OC[C@@H](O[C@@H]3OC[C@@H](O[C@@H]4OC[C@@H](O[C@@H]5OC[C@@H](O[C@@H]6OC[C@@H](O)[C@H](O)[C@H]6O)[C@H](O)[C@H]5O)[C@H](O)[C@H]4O)[C@H](O)[C@H]3O)[C@H](O)[C@H]2O)[C@H](O)[C@H]1O (stereo partly shown) [X6, Xylohexaose] | – | 0 °C | – | – | – | TSA ∆T (XuaA [1]; ligand 100 µM, Additional file 1): 0 °C
OC1OC[C@@H](O[C@@H]2OC[C@@H](O)[C@H](O)[C@H]2O)[C@H](O)[C@H]1O (stereo partly shown) [X2, xylobiose] | – | 0 °C | not active | – | – | –
OC[C@@H]1O[C@@H](O[C@H]2[C@H](O[C@@H]3CO[C@@H](O[C@@H]4COC(O)[C@H](O)[C@H]4O)[C@H](O)[C@H]3O)OC[C@@H](O)[C@@H]2O)[C@H](O)[C@H]1O (stereo partly shown) [A^2XX] | blocks the activity | 6.5 °C | IU: 202.3 ± 18.7 IU/µmol of enzyme | Products: Ara, X3 | IU: 1263.0 ± 46.1 IU/µmol of enzyme | –
B1 | – | – | – | – | – | Km [3]: Km 0.1 ± 0.003 mM; kcat [3]: kcat 2253.5 ± 142.1 min^−1; kcat/Km [3]: kcat/Km 23137.8 ± 1355.0 min^−1 mM^−1
B2 | – | – | – | – | – | Km [4]: Km: 3.5 ± 1.1 mM; kcat [4]: kcat: 5435.7 ± 846.4 min^−1; kcat/Km [4]: kcat/Km: 1628.1 ± 295.7 min^−1 mM^−1
